Source: patent US20140283583A1, “SYSTEM FOR PIPELINE DRYING AND FREEZING POINT SUPPRESSION” (WEATHERFORD/LAMB, INC., priority 2007, published 2014)

Key:
[1] = FIG. 1, compared with methanol and ethylene glycol
[2] = 50% w/w solution in water
[3] = test system: Menidia beryllina; details: 800 mg/L
[4] = test system: Mysidopsis bahia; details: 800 mg/L

Compound: O=C[O-].[K+] [potassium formate]
- methane hydrate suppression [1]: between ethylene glycol and methanol
- freezing point [2]: around −60 °C
- larval survival and growth toxicity testing (normality tests) [3]: passed the normality tests
- larval survival and growth toxicity testing (normality tests) [4]: passed the normality tests
